Laboratory results as given in ChEMBL document CHEMBL1201862, “PubChem BioAssay data set” (2004).
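Following 48 hours of exposure in 96-well plates, responses at five concentrations were used to interpolate endpoints linearly. GI50 = concentration required for 50% inhibition of growth.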 Activity calls are given as the source filed them. Cut-off read from the data, not from the text of the source: active = GI50 up to about 1.1 µM and inactive = higher.

Key:
Assay in all cases: NCI-60 cell line screen, 48 h
K562 = system: K562
MDA-MB-435 = system: MDA-MB-435
Hs-578T = system: Hs-578T
RXF 393 = system: RXF 393
HOP-62 = system: HOP-62
HOP-92 = system: HOP-92
SW-620 = system: SW-620
NCI/ADR-RES = system: NCI/ADR-RES
OVCAR-5 = system: OVCAR-5
U-251 = system: U-251
OVCAR-4 = system: OVCAR-4
MDA-N = system: MDA-N
NCI-H226 = system: NCI-H226
MCF7 = system: MCF7
ACHN = system: ACHN
OVCAR-8 = system: OVCAR-8
MDA-MB-231 = system: MDA-MB-231
BT-549 = system: BT-549
786-0 = system: 786-0

SMILES	GI50 (K562)	GI50 (MDA-MB-435)	GI50 (Hs-578T)	GI50 (RXF 393)	GI50 (HOP-62)	GI50 (HOP-92)	GI50 (SW-620)	GI50 (NCI/ADR-RES)	GI50 (OVCAR-5)	GI50 (U-251)	GI50 (OVCAR-4)	GI50 (MDA-N)	GI50 (NCI-H226)	GI50 (MCF7)	GI50 (ACHN)	GI50 (OVCAR-8)	GI50 (MDA-MB-231)	GI50 (BT-549)	GI50 (786-0)
CCC1(N)C(=O)OCc2c1cc1n(c2=O)Cc2cc3ccccc3nc2-1 (stereo not given)	18.9 µM (inactive)	54.6 µM (inactive)	> 100 µM (inactive)	13.4 µM (inactive)	5.69 µM (inactive)	35.4 µM (inactive)	25.7 µM (inactive)	5.02 µM (inactive)	44.5 µM (inactive)	6.73 µM (inactive)	50 µM (inactive)	17.7 µM (inactive)	6.08 µM (inactive)	2.14 µM (inactive)	3.73 µM (inactive)	7.71 µM (inactive)	77.4 µM (inactive)	30.5 µM (inactive)	3.74 µM (inactive)
C#C[C@]1(O)CC[C@H]2[C@@H]3CCC4=C/C(=N\OCCN(CC)CC)CC[C@]4(C)[C@H]3CC[C@@]21C	3.09 µM (inactive)	3.27 µM (inactive)	3.18 µM (inactive)	2.41 µM (inactive)	3.58 µM (inactive)	16.5 µM (inactive)	7.18 µM (inactive)	2.59 µM (inactive)	12.9 µM (inactive)	8.04 µM (inactive)	12.5 µM (inactive)	2.18 µM (inactive)	11.9 µM (inactive)	4.29 µM (inactive)	6.7 µM (inactive)	7.24 µM (inactive)	13.6 µM (inactive)	10 µM (inactive)	2.7 µM (inactive)
N/C(=N\Nc1nc2cc([N+](=O)[O-])ccc2o1)c1ccccn1	0.0673 µM (active)	0.551 µM (active)	4.31 µM (inactive)	0.0622 µM (active)	0.232 µM (active)	0.242 µM (active)	0.113 µM (active)	0.0404 µM (active)	0.137 µM (active)	0.0966 µM (active)	0.179 µM (active)	0.189 µM (active)	0.418 µM (active)	0.12 µM (active)	0.0802 µM (active)	0.0474 µM (active)	0.114 µM (active)	0.335 µM (active)	0.0897 µM (active)
O=C(NCCCNCCN1C(=O)c2cccc3cc([N+](=O)[O-])cc(c23)C1=O)c1cc(-c2ccccc2)nc2ccccc12	0.836 µM (active)	1.46 µM (inactive)	3.41 µM (inactive)	1.49 µM (inactive)	6.49 µM (inactive)	3.18 µM (inactive)	0.955 µM (active)	4.22 µM (inactive)	3.94 µM (inactive)	2.09 µM (inactive)	3.2 µM (inactive)	1.53 µM (inactive)	7.26 µM (inactive)	2.17 µM (inactive)	0.991 µM (active)	0.933 µM (active)	3.01 µM (inactive)	6.15 µM (inactive)	1.45 µM (inactive)
O=C1C(Cl)=C(N2C(=O)CCCC2=O)C(=O)c2ccccc21	2.7 µM (inactive)	21.8 µM (inactive)	31.2 µM (inactive)	15.7 µM (inactive)	> 100 µM (inactive)	3.46 µM (inactive)	20.9 µM (inactive)	22.6 µM (inactive)	18 µM (inactive)	26 µM (inactive)		17.2 µM (inactive)	59.4 µM (inactive)	16.8 µM (inactive)	8.87 µM (inactive)	11.7 µM (inactive)	20 µM (inactive)	20.3 µM (inactive)	16.9 µM (inactive)
CN(C)CCCN1c2ccc([N+](=O)[O-])cc2CCc2cc([N+](=O)[O-])ccc21	13.1 µM (inactive)	14.5 µM (inactive)	17.4 µM (inactive)	11.7 µM (inactive)	12.5 µM (inactive)	5.41 µM (inactive)	16 µM (inactive)	16.4 µM (inactive)	13.9 µM (inactive)	13.7 µM (inactive)		13.6 µM (inactive)	15.7 µM (inactive)	15.6 µM (inactive)	15.6 µM (inactive)	15.8 µM (inactive)	10.3 µM (inactive)	15.4 µM (inactive)	13.9 µM (inactive)
CC1(c2cccc(Cl)c2)CC(c2cccc(Cl)c2)=C(C#N)C(=C(C#N)C#N)N1 (stereo not given)	14.3 µM (inactive)	17 µM (inactive)	9.75 µM (inactive)	14.8 µM (inactive)	19.4 µM (inactive)	6.19 µM (inactive)	12.1 µM (inactive)	18.9 µM (inactive)	24.2 µM (inactive)	16.4 µM (inactive)	14.2 µM (inactive)	20.1 µM (inactive)	18.7 µM (inactive)	20.6 µM (inactive)	17.8 µM (inactive)	17.9 µM (inactive)	22.3 µM (inactive)	22.8 µM (inactive)	15.7 µM (inactive)
CC(C)(Cl)C(Br)CC/C(CBr)=C(/Cl)CCl.CC(C)(Cl)C(Br)CC/C(CBr)=C(\Cl)CCl (stereo not given)	1.01 µM (active)	1.79 µM (inactive)	3.22 µM (inactive)	2.14 µM (inactive)	3.92 µM (inactive)	1.9 µM (inactive)	2.64 µM (inactive)	2.21 µM (inactive)	5.13 µM (inactive)	1.73 µM (inactive)	2.74 µM (inactive)	1.8 µM (inactive)	0.975 µM (active)	2.13 µM (inactive)	5.64 µM (inactive)	1.75 µM (inactive)	1.83 µM (inactive)	2.01 µM (inactive)	1.66 µM (inactive)
COn1cc(CO)c2ccccc21	31.2 µM (inactive)	> 100 µM (inactive)	> 68.7 µM (inactive)	21.5 µM (inactive)	> 100 µM (inactive)	> 61.2 µM (inactive)	27.5 µM (inactive)	> 90.8 µM (inactive)	7.96 µM (inactive)	69.7 µM (inactive)	34 µM (inactive)	97.5 µM (inactive)	1.57 µM (inactive)	52.7 µM (inactive)	61.4 µM (inactive)	> 100 µM (inactive)	> 100 µM (inactive)	> 100 µM (inactive)	> 86.9 µM (inactive)
C[N+](C)(CCNC(=O)c1cccc2cc3ccccc3nc12)Cc1ccc([N+](=O)[O-])s1	> 25 µM (inactive)	> 25 µM (inactive)	> 25 µM (inactive)	> 25 µM (inactive)	> 25 µM (inactive)	> 25 µM (inactive)	> 25 µM (inactive)	> 25 µM (inactive)	> 25 µM (inactive)	> 25 µM (inactive)		> 25 µM (inactive)	> 25 µM (inactive)	> 25 µM (inactive)	> 25 µM (inactive)	> 25 µM (inactive)	> 25 µM (inactive)	> 25 µM (inactive)	> 25 µM (inactive)
COc1ccc2[nH]cc(CCNC(=O)[C@H](Cc3ccccc3)NC(=O)[C@@H](NCC(F)(F)F)C(C)C)c2c1	29.7 µM (inactive)	19.8 µM (inactive)	18.6 µM (inactive)	15.6 µM (inactive)	14.8 µM (inactive)	12.1 µM (inactive)	28.5 µM (inactive)	19.1 µM (inactive)	18.3 µM (inactive)	21.4 µM (inactive)	16.3 µM (inactive)	18.2 µM (inactive)	21.4 µM (inactive)	17.9 µM (inactive)	28.2 µM (inactive)	23.3 µM (inactive)	18.5 µM (inactive)	21.4 µM (inactive)	18.1 µM (inactive)
O=C(c1ccccc1)C1C[C@H]2CO[C@H](c3ccccc3)N2C1=O (stereo not given in full)	> 100 µM (inactive)	> 100 µM (inactive)	> 100 µM (inactive)	> 100 µM (inactive)		> 100 µM (inactive)	> 100 µM (inactive)	> 100 µM (inactive)	> 100 µM (inactive)	> 100 µM (inactive)	> 100 µM (inactive)	> 100 µM (inactive)	> 100 µM (inactive)	> 100 µM (inactive)	> 100 µM (inactive)	> 100 µM (inactive)	> 100 µM (inactive)	> 100 µM (inactive)	> 100 µM (inactive)
Cc1ccc(F)cc1NC(=O)O/N=C(\Cl)C(C)C	1.97 µM (inactive)	13 µM (inactive)	22.5 µM (inactive)	3.05 µM (inactive)	19.5 µM (inactive)	2.58 µM (inactive)	2.35 µM (inactive)	10.6 µM (inactive)	15.4 µM (inactive)	23.3 µM (inactive)	16 µM (inactive)	5.62 µM (inactive)	14 µM (inactive)	6.4 µM (inactive)	2.14 µM (inactive)	17.5 µM (inactive)	14.1 µM (inactive)	2.18 µM (inactive)	5.69 µM (inactive)
CN(C)Cc1cc(/N=N/c2c(Cl)cccc2Cl)ccc1O	53.5 µM (inactive)	88.9 µM (inactive)	40.9 µM (inactive)	23.4 µM (inactive)	> 100 µM (inactive)	31.9 µM (inactive)	79.6 µM (inactive)	> 100 µM (inactive)		85.7 µM (inactive)	> 100 µM (inactive)	> 100 µM (inactive)	35.2 µM (inactive)	> 100 µM (inactive)	56.4 µM (inactive)	> 100 µM (inactive)	> 100 µM (inactive)	49 µM (inactive)	64.1 µM (inactive)
COc1ccc(C(C#N)NCCCCCCNC(C#N)c2ccc(OC)cc2)cc1 (stereo not given)	> 100 µM (inactive)	> 100 µM (inactive)	> 100 µM (inactive)	> 100 µM (inactive)	> 100 µM (inactive)	> 100 µM (inactive)	> 100 µM (inactive)	> 100 µM (inactive)	> 100 µM (inactive)	> 100 µM (inactive)	> 100 µM (inactive)	> 100 µM (inactive)	> 100 µM (inactive)	> 100 µM (inactive)	> 100 µM (inactive)	> 100 µM (inactive)	> 100 µM (inactive)	> 100 µM (inactive)	> 100 µM (inactive)
